Consider 2 molecules from patent publication US10351565B2, “Therapeutic compounds for pain and synthesis thereof” (priority 2015, dated 2019).

Values joined by “and” are separate entries in the source; they are usually repeats but may differ in a detail not shown here. Equal values may be shown once. Some results are limits rather than exact numbers.

Assay [1] deals with neuropathic pain in mice. The assay is described as follows: Taxol mouse model of neuropathic pain, repeated daily administration. The class given is in vivo. An excerpt:
(§1) Table 7 summarizes the activity of Formula 1 in mice models of neuropathic pain following repeated daily administration using different routes of administration.

The subject of assay [2] is neuropathic pain in mice. In words: CCI mouse model of neuropathic pain, repeated daily administration. The class given is in vivo. The conditions noted are these: for Dose of maximum activity: doses tested 150 mg/kg.
Description: as §1

The mark [3] stands for this setting: PO, 30 mg/kg, repeated daily administration.
Setting [4] is: SC, doses tested 1, 3, 10 mg/kg, repeated daily administration.
Setting [5] is: SC, 150 mg/kg, repeated daily administration.

As for `COc1ccc2cc(CN3[C@@H]4C[C@@H]5C[C@H]3[C@H](OC(=O)C(C)(C)C)C4N(C(=O)CC(F)(F)F)C5)ccc2c1` (stereo partly drawn) [Formula 1, (2S,3S,6R,7aR)-1-((6-methoxynaphthalen-2-yl)methyl)-4-(3,3,3-trifluoropropanoyl)octahydro-1H-2,6-methanopyrrolo[3,2-b]pyridin-3-yl pivalate], in assay [1] (setting [3]), the “Duration of activity at maximum effect” value is given as 24 H, the “Level of activity (% of maximum effect- baseline)” value turned out to be 100% and the “Peak of activity (T)” value was 2-24 H. The “Dose of maximum activity” value in assay [1] (PO, doses tested 30 mg/kg) was less than 30 mg/kg. Moreover, the “Dose of maximum activity” value in assay [1] (SC, doses tested 1, 3, 10 mg/kg) amounted to 1 mg/kg. In assay [1] (setting [4]), the “Duration of activity at maximum effect” value was determined as 24 h and the “Level of activity (% of maximum effect- baseline)” value stood at 100%.

As to `NCC1(CC(=O)O)CCCCC1` [Gabapentin], the “Dose of maximum activity” value is given as 150 mg/kg in assay [2] (IP); 150 mg/kg in assay [2] (SC); 150 mg/kg in assay [1] (PO, doses tested 150 mg/kg); 150 mg/kg in assay [1] (SC, doses tested 150 mg/kg). Further, in assay [2] (setting [5]), the “Duration of activity at maximum effect” value is recorded as 4-6 H. Also, the “Level of activity (% of maximum effect- baseline)” value in assay [2] (setting [5]) is >100% and 64%. Also, in assay [2] (setting [5]), the “Peak of activity (T)” value is on record as 2-3 H.
